# “Also recorded” adds a separate entry of the source.
# B1: Myomerger ectodomain: recombinant Myomerger ectodomain (amino acids 26-84) used in Example Set B (protein)
# chain: MPVPLLPMVLRSLLSRLLLPVARLARQHLLPLLRRLARRLSSQDMREALLSCLLFVLSQQQPPDSGEASRVDHSQRKERLGPQK
# Legend:
# C2C12 myoblasts = experiment: Myoblast fusion assay, WT myoblasts; type: cell-based
# Source text: (§1) To specifically characterize different steps in fusion, we used 3 distinct assays: (i) hemifusion between cells labeled with membrane probe and content probe with unlabeled cells where hemifusion was detected as the appearance of lipid-labeled mononucleated cells without the content probe (FIG. 1A, FIG. 2A, FIG. 1E)); (ii) opening of a fusion pore in fusion between cells labeled with green cell tracker and cells labeled with orange cell tracker was detected as appearance of double-labeled cells (FIG. 1F); and (iii) fusion completion was detected as formation of multinucleated cells. […] Formation of multinucleated myotubes was quantified as the percentage of cell nuclei present in myotubes normalized to the total number of cell nuclei. Hemifusion and fusion pore opening were quantified as a number of double-labeled mononucleated cells normalized to the total number of cell nuclei in the field. For each condition, ≥8 randomly chosen fields of view were imaged. We also analyzed fusion by assessing the number of nuclei in myosin^+ cells. […] Samples were imaged with a Nikon Eclipse inverted microscope with AIR confocal running NIS Elements and images were analyzed with Fiji (SCHINDELIN et al. (2012) “Fiji: an open-source platform for biological-image analysis” Nat Methods, Vol. 9, pp. 676-682, which is herein incorporated by reference in its entirety) […]
# [1] = system: Myomerger^−/− C2C12 myoblasts; experiment: Myoblast fusion assay (myosin+ cells, nuclei count), Myomerger-deficient myoblasts; type: cell-based
# Source text: To specifically characterize different steps in fusion, we used 3 distinct assays: (i) hemifusion between cells labeled with membrane probe and content probe with unlabeled cells where hemifusion was detected as the appearance of lipid-labeled mononucleated cells without the content probe (FIG. 1A, FIG. 2A, FIG. 1E)); (ii) opening of a fusion pore in fusion between cells labeled with green cell tracker and cells labeled with orange cell tracker was detected as appearance of double-labeled cells (FIG. 1F); and (iii) fusion completion was detected as formation of multinucleated cells. […] Formation of multinucleated myotubes was quantified as the percentage of cell nuclei present in myotubes normalized to the total number of cell nuclei. Hemifusion and fusion pore opening were quantified as a number of double-labeled mononucleated cells normalized to the total number of cell nuclei in the field. For each condition, ≥8 randomly chosen fields of view were imaged. We also analyzed fusion by assessing the number of nuclei in myosin^+ cells. Here, cells were fixed with 4% paraformaldehyde (PFA)/PBS, permeabilized with 0.02% Triton X-100/PBS, and blocked with 3% BSA/PBS followed by immunostaining with myosin antibodies (MF 20, Developmental Studies Hybridoma Bank, 1:40) for one hour at room temperature. Alexa-Fluor secondary antibody (Invitrogen, 1:250) was incubated for 30 minutes at room temperature. Nuclei were stained with Hoechst (Invitrogen). Samples were imaged with a Nikon Eclipse inverted microscope with AIR confocal running NIS Elements and images were analyzed with Fiji (SCHINDELIN et al. (2012) “Fiji: an open-source platform for biological-image analysis” Nat Methods, Vol. 9, pp. 676-682, which is herein incorporated by reference in its entirety)
# For detergent and recombinant protein application, 2.5×10^4 myoblasts per well of an 8-well μ-slide (Ibidi) were differentiated for 72 hours. 0.06% Octyl-β-Glucoside (OG) (Anatrace) in differentiation media was incubated for 30 minutes at 37° C. Cells were washed with PBS and switched back to normal differentiation media for 5 hours. For primary myoblasts, 3×10^4 cells were plated per well of an 8-well μ-slide (Ibidi) coated with fibronectin (Sigma-Aldrich, 5 μg/cm^2) and differentiated for 36 hours. Cells were treated with 0.06% OG in PBS for 30 minutes at 37° C., washed with PBS and switched back to normal differentiation media for 2 hours. For recombinant proteins, cells were treated with various concentrations of rMBP or rMBP-Myomerger^26-84 (0.5 μM, 1.25 μM, 3 μM, 6.25 μM and 12.5 μM), or 6.25 μM of Magainin 2 (AnaSpec), in differentiation media for 20 hours at 37° C.
# [2] = system: mouse Red Blood Cells (RBCs); experiment: Red blood cell hemolysis (spectrophotometer); type: cell-based; conditions: Myomerger ectodomain at 25 μM
# Procedure: Myomerger ectodomain (amino acids 26-84) was added to mouse Red Blood Cells (RBCs) and hemolysis was measured using a spectrophotometer (FIG. 9).
# [3] = system: Myomaker^−/− C2C12 myoblasts; experiment: Myoblast fusion assay (myosin+ cells, nuclei count), Myomaker-deficient myoblasts; type: cell-based
# Source text: as §1
# Myomaker^−/− C2C12 cells = experiment: Synchronized fusion assay (LPC), Myomaker^−/− C2C12; type: cell-based; conditions: 50 μM CPZ 60 seconds at LPC removal, assayed after 30 minutes
# Procedure: We labeled C2C12 cells 48 hours after placement in the differentiation medium, and co-plated differently labeled cells in a 1-to-1 ratio. […] Fusion was scored 30 min after LPC removal and thus −68 hours after placing the cells into differentiation medium. […] We kept the cells in LPC-supplemented differentiation medium for 16 hours, washed out LPC with LPC-free medium and 30 minutes later (˜24 hours after placing the cells into differentiation medium) scored fusion.
# Formation of multinucleated myotubes was quantified as the percentage of cell nuclei present in myotubes normalized to the total number of cell nuclei. Hemifusion and fusion pore opening were quantified as a number of double-labeled mononucleated cells normalized to the total number of cell nuclei in the field. […]
# [4] = system: Myomerger^−/− C2C12 myoblasts; experiment: Synchronized fusion assay (LPC), Myomerger^−/− C2C12; type: cell-based; conditions: 50 μM CPZ 60 seconds at LPC removal, assayed after 30 minutes
# Source text: (§2) We uncoupled the myoblast fusion stage of myogenic differentiation from the stages that prepare the cells for fusion using a fusion-synchronization approach described previously (GAMAGE et al. (2017) “Insights into the localization and function of myomaker during myoblast fusion” J Biol Chem, Vol. 292, pp. 17272-17289, which is herein incorporated by reference in its entirety; LEIKINA et al. (2013) “Extracellular annexins and dynamin are important for sequential steps in myoblast fusion” J Cell Biol, Vol. 200, pp. 109-123, which is herein incorporated by reference in its entirety). In brief, fusion-committed myoblasts were placed into complete medium supplemented with 150 μM lauroyl LPC (#855475P, Avanti Polar Lipids). 16 h later we washed the cells three times with LPC-free complete medium. […]
# (§3) We labeled C2C12 cells 48 hours after placement in the differentiation medium, and co-plated differently labeled cells in a 1-to-1 ratio. […] Fusion was scored 30 min after LPC removal and thus […] after placing the cells into differentiation medium. […] We kept the cells in LPC-supplemented differentiation medium for 16 hours, washed out LPC with LPC-free medium and 30 minutes later (˜24 hours after placing the cells into differentiation medium) scored fusion. […]
# WT C2C12 myoblasts = experiment: Synchronized fusion assay (LPC), WT C2C12; type: cell-based; conditions: 50 μM CPZ 60 seconds at LPC removal, assayed after 30 minutes
# Source text: as §2, §3
# primary myoblasts = experiment: Myoblast fusion assay, Myomerger-deficient primary myoblasts; type: cell-based, mouse; conditions: 0.06% OG in PBS 30 minutes
# Source text: as §1
# [5] = system: Listeria monocytogenes (Lm); experiment: Bactericidal assay, colony forming units; type: cell-based; conditions: 25 μM, 2 hours
# Procedure: (§4) Gram-positive bacteria Listeria monocytogenes (Lm) and gram-negative bacteria Escherichia coli (E. coli) were treated with 25 μM recombinant Myomerger ectodomain (labeled as “protein” in FIG. 8) for 2 hours.
# [6] = system: Escherichia coli (E. coli); experiment: Bactericidal assay, colony forming units; type: cell-based; conditions: 25 μM, 2 hours
# Procedure: as §4
# [7] = 6.25 μM Magainin 2, 20 hours on day 3 of differentiation
# [8] = 0.06% OG 30 minutes on day 3 of differentiation, fusion assessed 5 hours after treatment
molecule,measurement,setting,value
Magainin 2 [Mag2],fusion,C2C12 myoblasts; Mag2 treatment,did not have an effect
same,fusion,[1]; [7],partially rescued fusion; also recorded: induced myotube formation
same,percentage of myosin+ cells with 3 or ≥4 nuclei,[1]; Mag2 treatment,increased the percentage of cells with 3 nuclei but also induced formation of myotubes with ≥4 nuclei
same,hemolysis,[2],no measurable effect
same,fusion,[3]; [7],had no effect
"CN(C)CCCN1c2ccccc2Sc2ccc(Cl)cc21 [CPZ, chlorpromazine]",fusion (syncytium formation),Myomaker^−/− C2C12 cells,No fusion was observed
same,fusion (syncytium formation),[4],reached fusion levels observed for WT myoblasts
same,fusion (syncytium formation),WT C2C12 myoblasts,little effect
"CCCCCCCCO[C@@H]1O[C@H](CO)[C@@H](O)[C@H](O)[C@H]1O [OG, Octyl-β-Glucoside]",fusion,C2C12 myoblasts; OG treatment,did not have an effect
same,fusion,[1]; [8],obvious fusion events; also recorded: induced fusion
same,percentage of myosin+ cells with 3 or ≥4 nuclei,[1]; OG treatment,increased the percentage of cells with 3 nuclei but also induced formation of myotubes with ≥4 nuclei
same,fusion,[3]; [8],did not fuse
same,fusion,primary myoblasts,compensate for loss of Myomerger
B1,hemolysis,[2],induced lysis
same,growth (colony forming units),[5],disrupts the growth
same,effect on Lm compared to E. coli,[5]; gram-positive vs gram-negative,more of an effect
same,growth (colony forming units),[6],disrupts the growth

# Source: patent US12054526B2, “Polypeptides, nucleic acid molecules, compositions, and related methods” (CHILDREN'S HOSPITAL MEDICAL CENTER, priority 2018, dated 2024)
